Values of other authors in patent US8496960B2 (Purdue Pharma L.P., priority 2001, dated 2013).

How the values were obtained:
[1] = following oral administration

- first-pass effect (following oral administration): minimal
- effect of food on bioavailability (oral, with food): no significant effect
Structure (SMILES): COc1cc2nc(N3CCN(C(=O)C4CCCO4)CC3)nc(N)c2cc1OC (stereo not drawn) [terazosin]
- time to antihypertensive effects [1]: ≤ 15 min
